The target in one assay is T1, PKCθ (Homo sapiens, UniProt Q04759).
T1 construct: host or cells: HeLa cells
Put plainly: EGFP-PKC isoform translocation in HeLa cells. The settings on record: one hour, TPA 100 ng/mL, bryostatin-1 5 pg/mL, PEP003 2.25 μg/mL (5 μM), PEP005 670 μg/mL (1.5 μM). It counts as cell-based. The method, then: (§1) Five EGFP-PKC isoforms (Clontech) were available for this experiment, enabling the screening of the three predominant PKC families (i.e. classical, novel and atypical PKCs). The members of the various PKC families are α, β, and γ (classical), θ (novel) and ζ (atypical).
(§2) HeLa cells were plated out in a 24-well plate containing coverslips and transfected with PKC isoforms fused to EGFP, using a commercially available effectine-transfection kit (QIAGEN, Pty. Ltd.). Cells were exposed to the transfection reagents for 16-24 hr. Subsequently, transfected cells were treated for one hour with TPA (100 ng/mL), bryostatin-1 (5 pg/mL), PEP003 (2.25 μg/mL; 5 μM) or PEP005 ([…]) 1.5 μM). Following treatment, cells were fixed on coverslips and mounted on glass slides. The slides were subsequently examined visually by fluorescence microscopy, photographed, and over 150 cells were counted/treatment/PKC isoform. Counted cells were classified according to the localisation of the PKC-EGFP fluorescence as either cytoplasmic or plasma membrane using ImagePro™ 4.1 (FIG. 5). […] The number of these cells was also counted. Results are presented as an average and standard deviation of percentages of cells (Table 1).

A further assay concerns the target T2, PKCβ (Homo sapiens, UniProt P05771).
T2 construct: host or cells: HeLa cells
In words: EGFP-PKC isoform translocation in HeLa cells. It counts as cell-based. The following applies: for number of PKCβ transfected cells with Golgi-like fluorescence: one hour treatment; for translocation of PKCβ to the plasma membrane: one hour, TPA 100 ng/mL, bryostatin-1 5 pg/mL, PEP003 2.25 μg/mL (5 μM), PEP005 670 μg/mL (1.5 μM). The procedure: as §1, §2

In the next assay the target is T3, PKCζ (Homo sapiens, UniProt Q05513).
T3 construct: host or cells: HeLa cells
T3 sequence (Q05513 1-592): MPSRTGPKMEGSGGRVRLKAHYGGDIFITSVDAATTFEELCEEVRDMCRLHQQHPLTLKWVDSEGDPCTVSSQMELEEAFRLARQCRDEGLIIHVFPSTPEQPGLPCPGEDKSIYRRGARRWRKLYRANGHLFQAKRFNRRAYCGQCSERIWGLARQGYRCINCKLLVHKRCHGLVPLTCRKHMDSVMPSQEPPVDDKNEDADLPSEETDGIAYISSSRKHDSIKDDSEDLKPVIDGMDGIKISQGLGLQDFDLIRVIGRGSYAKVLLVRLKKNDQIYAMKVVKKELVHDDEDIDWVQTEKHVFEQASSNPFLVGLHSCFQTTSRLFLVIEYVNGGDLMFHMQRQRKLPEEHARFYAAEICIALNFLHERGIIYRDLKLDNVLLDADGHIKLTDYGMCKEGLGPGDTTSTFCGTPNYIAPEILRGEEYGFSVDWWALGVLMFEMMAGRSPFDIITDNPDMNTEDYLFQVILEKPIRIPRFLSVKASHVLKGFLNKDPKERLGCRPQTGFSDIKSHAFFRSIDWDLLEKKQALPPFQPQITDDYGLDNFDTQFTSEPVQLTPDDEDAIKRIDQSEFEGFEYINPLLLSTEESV
In words: EGFP-PKC isoform translocation in HeLa cells. It counts as cell-based. The following applies: one hour, TPA 100 ng/mL, bryostatin-1 5 pg/mL, PEP003 2.25 μg/mL (5 μM), PEP005 670 μg/mL (1.5 μM). The method, then:
as §1, §2

For assay [1], the system named is Peripheral blood mononuclear cells (PBMC). Put plainly: Respiratory burst (H2O2) in PBMC, DCFH-DA flow cytometry. The class given is cell-based. The following applies: 15 min at 37° C.; granulocytes, monocytes, lymphocytes. The procedure:
Experiments were also carried out using 2′,7′-dichlorofluorescein diacetate (DCFH-DA) to measure the production of H2O2.(J P Robinson, Oxidative burst methods, in Handbook of Flow Cytometry Methods, Wiley-Liss Inc, pp147-149, 1993). H2O2 oxidizes the non-fluorescent probe (DCFH-DA) to a fluorescent probe that can then be detected by a flow cytometer. Peripheral blood mononuclear cells (PBMC) were extracted from a donor blood sample by lysis of heparinized blood and used in a suspension of 1×10^6/mL of phosphate buffer, pH 7.3. The cells were then incubated with DCFH-DA (1 μL/mL of 20 mM stock) for 15 minutes to allow it to be taken up and trapped by hydrolysis with cellular esterases. The cells were then stimulated by test compounds for 15 min at 37° C. Controls included in the experiment were unloaded control (cells with no DCFH-DA) and loaded control (cells with DCFH-DA, but no stimulation). These were used to monitor the non-specific oxidation of unstimulated cells. The cells were then analyzed on the flow cytometer (excitation at 488 nm, emission at 525±20 nm), gating each sample for individual cell populations-granulocytes, monocytes and lymphocytes (Table 3).
For orientation: Flow cytometry measures light scatter and fluorescence of single cells or particles in a stream.

Assay [2] deals with MM96L human melanoma cells. Put plainly: Leukocyte killing of tumor cells, [3H]-thymidine labelling. It counts as cell-based. The settings on record: 100:1 effector:target, 48 hr. The method, then:
(§3) Leukocytes obtained by lysis of human peripheral blood were added to 5000 MM96L human melanoma cells or 7000 neonatal foreskin fibroblasts per microtitre well at effector: target ratios of 1000, 100 and 10:1. Ing9 (60 ng/mL) was added and after 48 hr incubation the cultures were washed and labelled with [3H]-thymidine for 2 hr. […] Untreated leukocytes had no effect on cell survival.
(§4) Leukocytes obtained by lysis of human peripheral blood were added to 5000 MM96L human melanoma cells or 7000 neonatal foreskin fibroblasts per microtitre well at effector: target ratios of 1000, 100 and 10:1. The target cells had been treated with 60 ng/mL PEP008 for 20 hr beforehand, and washed and the medium replaced before the leukocytes were added. After 48 hr incubation with the leukocytes the cultures were washed and labelled with [3H]-thymidine for 2 hr. […] Untreated leukocytes had no effect on cell survival.

The subject of assay [3] is neonatal foreskin fibroblasts. In words: Leukocyte killing of normal cells, [3H]-thymidine labelling. It counts as cell-based, human. The settings on record: 100:1 effector:target, 48 hr. The procedure:
as §3, §4

Assay [4] relates to peripheral blood mononuclear cells (PBMCs). Put plainly: Phagocytosis with fluorescent beads. The settings on record: whole heparinized blood, 30 min at 37° C. The class given is cell-based. The method, then: Phagocytosis by peripheral blood mononuclear cells (PBMCs) was assayed (Steinkamp et al., 1982) using 1 μm Fluoresbrite™ yellow-green fluorescent latex spheres (Polysciences, Inc., Warrington, Pa.). A sample of whole, heparinized blood was treated with drug and 5×10E7 fluorescent latex beads in 10 μL of PBS added per mL of suspension. Cells were incubated and maintained in suspension for 30 min by means of a shaker platform at 37° C. The stirnulated and non-stimulated samples were then lysed to isolate PBMCs. The PBMCs were run on the flow cytometer measuring FITC (excitation at 488 nm, emission at 525±20 nm), gated for fluorescence (phagocytosed spheres) and light scatter (cell size).

Another assay concerns adenovirus 5. In words: Adenovirus 5 replication in human melanoma cells. The class given is cell-based. The following applies: 2 days. An excerpt:
Human melanoma cells were infected with ten-fold dilutions of adenovirus 5 in culture, treated with dilutions of PEP005, PEP006, PEP008 and PEP010 and adenovirus replication determined 2 days later by immunhistochemical detection of virus-replicating cells.

A further assay has as its system HIV-strain pNL4-3. In words: HIV-1 replication in acutely infected PBMC (CA-p24 ELISA). The class given is cell-based. The settings on record: 2.8 μM. The method, then:
Experiments were conducted to assess the effect of the compounds of the instant invention on HIV-1 replication in acutely infected T cells. Peripheral blood mononuclear cells (PBMC) were obtained from non-HIV-1, non-HIV-2, non-Hepatitis B/C infected donors, stimulated with phytohemagglutinin-M and grown in culture media supplemented with 10 U/mL interleukin-2. The activated PBMC were infected with […] (Low Titre) and 100 ng (High Titre) of CA-p24 equivalents of the HIV-strain pNL4-3. Cells were infected for two hr after which, the virus was removed and the cells were washed with culture media. Equivalent numbers of cells were seeded into 24 well plates and compounds were added to the cultured cells that included: TPA at 8 riM and 80 nM, Ingenol at 280 nM, PEP003 at 500 nM, 50 nM and 5 nM, or PEP004 at dilutions of 1×10^4 and 1×10^5 from the stock (final concentrations). In addition, uninfected activated PBMC were grown in the presence of TPA (80 nM), Ingenol (280 nM), PEP003 (500 nM) and PEP004 (1×10^4 dilution). Other cultures were neither infected nor treated with any compound, or infected but not treated with any compound. Supernatant was removed from each culture at day 0, 3, 7, and 10. The amount of HIV-1 CA-p24 was determined using a commercially available ELISA assay. Three independent experiments were performed.

The test system of another assay is rat brain PKC. Put plainly: PepTag non-radioactive PKC kinase activity assay. The following applies: FIG. 1; TPA 100-0.01 ng/ml; ether extract final dilution 1 in 5; aqueous layer and crude sap diluted 1/25.
In another assay the target is T4, PKCγ (Homo sapiens, UniProt P05129).
T4 construct: host or cells: HeLa cells
Put plainly: EGFP-PKC isoform translocation in HeLa cells. It counts as cell-based. The procedure: as §1, §2

A further assay concerns the target T5, PKCα (Homo sapiens, UniProt P17252).
T5 construct: host or cells: HeLa cells
The class given is cell-based. The settings on record: HeLa. The method, then:
as §1
as §2, with “counted.” for “counted. Results are presented as an average and standard deviation of percentages of cells (Table 1).”

The mark [5] stands for this setting: target cells pre-treated with 60 ng/mL for 20 hr, washed.

T2 sequence (P05771 whole entry, species assumed): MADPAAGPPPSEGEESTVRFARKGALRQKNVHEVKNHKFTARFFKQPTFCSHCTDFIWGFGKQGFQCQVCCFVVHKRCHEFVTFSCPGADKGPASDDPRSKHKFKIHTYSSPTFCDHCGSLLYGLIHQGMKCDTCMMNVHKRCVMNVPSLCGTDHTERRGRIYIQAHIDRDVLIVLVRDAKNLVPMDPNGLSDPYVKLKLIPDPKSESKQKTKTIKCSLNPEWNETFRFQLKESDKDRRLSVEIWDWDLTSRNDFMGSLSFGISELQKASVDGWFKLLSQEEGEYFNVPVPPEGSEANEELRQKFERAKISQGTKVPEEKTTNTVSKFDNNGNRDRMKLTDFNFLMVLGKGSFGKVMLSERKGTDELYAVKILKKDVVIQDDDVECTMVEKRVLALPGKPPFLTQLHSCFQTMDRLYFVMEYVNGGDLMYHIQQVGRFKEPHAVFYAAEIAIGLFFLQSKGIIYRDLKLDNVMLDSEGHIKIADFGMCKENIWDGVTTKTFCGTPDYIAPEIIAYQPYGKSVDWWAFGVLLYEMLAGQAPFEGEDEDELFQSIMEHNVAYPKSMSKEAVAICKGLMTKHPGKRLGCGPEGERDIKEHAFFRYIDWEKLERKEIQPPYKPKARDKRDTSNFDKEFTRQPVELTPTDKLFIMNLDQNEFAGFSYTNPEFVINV
T1 sequence (Q04759 whole entry): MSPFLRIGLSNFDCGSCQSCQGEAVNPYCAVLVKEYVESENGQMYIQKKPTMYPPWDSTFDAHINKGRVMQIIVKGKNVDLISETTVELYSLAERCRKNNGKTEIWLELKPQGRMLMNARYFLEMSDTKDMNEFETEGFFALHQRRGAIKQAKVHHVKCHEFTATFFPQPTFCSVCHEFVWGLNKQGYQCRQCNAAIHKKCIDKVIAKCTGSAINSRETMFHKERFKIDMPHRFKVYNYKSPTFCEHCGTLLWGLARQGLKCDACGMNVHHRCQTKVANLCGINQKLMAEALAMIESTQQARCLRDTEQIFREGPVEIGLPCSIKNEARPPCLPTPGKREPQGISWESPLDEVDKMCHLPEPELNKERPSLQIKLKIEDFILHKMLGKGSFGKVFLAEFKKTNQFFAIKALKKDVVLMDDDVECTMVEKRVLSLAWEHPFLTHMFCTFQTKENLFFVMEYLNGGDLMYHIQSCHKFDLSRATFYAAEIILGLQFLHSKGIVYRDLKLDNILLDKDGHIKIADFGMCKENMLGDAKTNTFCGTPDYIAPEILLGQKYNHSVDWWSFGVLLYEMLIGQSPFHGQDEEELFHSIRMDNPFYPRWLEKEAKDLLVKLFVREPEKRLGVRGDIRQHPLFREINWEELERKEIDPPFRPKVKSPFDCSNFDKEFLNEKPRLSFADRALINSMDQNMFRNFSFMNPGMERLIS
Experimental for rat brain PKC: The kinase activity of rat brain PKC (Promega) was determined using the Peptag™ Non-Radioactive Protein Kinase Kit (Promega). Using agarose gel electrophoresis the technique visualises the opposing electrostatic charge of a fluorescently labeled peptide ([sequence]) compared to the phosphorylated version of the same peptide.
The reaction mixture was separated by gel electrophoresis, showing migration of the unreacted substrate (a) to the anode (top), and the product (b), which is more negatively charged because of phosphorylation by PKC, moving towards the cathode (bottom).

As for `CCC/C=C/C=C/C(=O)O[C@H]1/C(=C/C(=O)OC)C[C@H]2C[C@H]([C@@H](C)O)OC(=O)C[C@H](O)C[C@@H]3C[C@H](OC(C)=O)C(C)(C)[C@](O)(C[C@@H]4C/C(=C/C(=O)OC)C[C@H](/C=C/C(C)(C)[C@]1(O)O2)O4)O3` [bryostatin-1], at PKCθ, the “translocation of PKCθ” value was “translocated”. On PKCβ, the “number of PKCβ transfected cells with Golgi-like fluorescence” value is reported as “decreases the number of cells with PKCβ concentrated in the Golgi” and the “translocation of PKCβ to the plasma membrane” value was “but not with bryostatin-1”. The “translocation of PKCζ” value on PKCζ was “fail to induce translocation”. Moreover, the “induction of a respiratory burst (H2O2, DCFH-DA)” value in [1] was “All compounds except Bryostatin induced a respiratory burst”.
In the case of `C/C=C(/C)C(=O)O[C@H]1C(C)=C[C@]23C(=O)[C@@H](C=C(COC(C)=O)[C@@H](O)[C@]12O)[C@H]1[C@@H](C[C@H]3C)C1(C)C` [PEP008, 20-O-acetyl-ingenol-3-angelate], the “survival of melanoma cells” value in assay [2] (60 ng/mL added with leukocytes) worked out at 9%; in [2] (setting [5]) it was 12%. Further, the “survival of normal fibroblasts” value in assay [3] (60 ng/mL added with leukocytes) and in [3] (setting [5]) was 100% in each case. Besides, the “stimulation of phagocytosis of fluorescent latex beads” value (from here on “stimulation”) in assay [4] is given as “stimulate phagocytosis in PBMCs”. Further, the “increase of adenovirus replication (number of stained cells)” value (from here on “increase of adenovirus replication”) with adenovirus 5 (226 ng/mL) stood at 248%.
Regarding `CC1=C[C@]23C(=O)[C@@H](C=C(CO)[C@@H](O)[C@]2(O)[C@H]1O)[C@H]1[C@@H](C[C@H]3C)C1(C)C` [Ingenol], the “reduction of HIV-1 replication rate” value in the assay on HIV-strain pNL4-3 is recorded as “approximately 35%”.
In the case of phosphatidyl serine, the “activation of PKC (phosphorylation of fluorescent PepTag substrate)” value in the assay on rat brain PKC is listed as “strong activation”.
On to `C/C=C(/C)C(=O)O[C@H]1C(C)=C[C@]23C(=O)[C@@H](C=C(CO)[C@@H](O)[C@]12O)[C@H]1[C@@H](C[C@H]3C)C1(C)C` [PEP006, Ingenol-3-angelate], for which the “stimulation” value in assay [4] is on record as “stimulate phagocytosis in PBMCs”. Also, the “increase of adenovirus replication” value in the assay with adenovirus 5 (295 ng/mL) was determined as 256%.
Take `C/C=C(/C)C(=O)O[C@H]1C(C)=C[C@]23C(=O)[C@@H](C=C(CO)[C@@H](O)[C@]12O)[C@H]1[C@@H](C[C@H]3C)C1(C)C` [PEP005, 20-hydroxy-ingenol-3-angelate]: at PKCθ, the “translocation of PKCθ” value was “does not induce any change”. For the same compound, at PKCβ, the “number of PKCβ transfected cells with Golgi-like fluorescence” value is listed as “decreases the number of cells with PKCβ concentrated in the Golgi” and the “translocation of PKCβ to the plasma membrane” value is given as “translocated from the cytoplasm to the plasma membrane”. Moreover, the “translocation of PKCζ” value at PKCζ is listed as “fail to induce translocation”. In addition, the “number of PKCγ transfected cells displaying Golgi-like fluorescence” value at PKCγ (one hour treatment) was “increase in the number of cells displaying Golgi-like fluorescence”. For the same compound, on PKCγ (one hour, TPA 100 ng/mL, bryostatin-1 5 pg/mL, PEP003 2.25 μg/mL (5 μM), PEP005 670 μg/mL (1.5 μM)), the “translocation of PKCγ to the plasma membrane” value is “translocated from the cytoplasm to the plasma membrane”. In addition, in assay [4], the “stimulation” value is “stimulate phagocytosis in PBMCs”. In the assay with adenovirus 5 (67 ng/mL), the “increase of adenovirus replication” value is on record as 344%. In addition, the “number of PKCα transfected cells displaying Golgi-like fluorescence” value at PKCα (one hour treatment) is “increase in the number of cells displaying Golgi-like fluorescence”. At PKCα (one hour, TPA 100 ng/mL, bryostatin-1 5 pg/mL, PEP003 2.25 μg/mL (5 μM)), the “translocation of PKCα to the plasma membrane” value is reported as “translocated from the cytoplasm to the plasma membrane”.

The values above are taken from US20030195168A1, “Therapeutic agents - III” (priority 2000, published 2003).
